Source: paper PMC4955970, “Stable, synthetic analogs of diadenosine tetraphosphate inhibit rat and human P2X3 receptors and inflammatory pain” (Molecular Pain, 2016)

Tests used:
[1] = target: T1, human P2X3 receptors (hP2X3Rs) (Homo sapiens, UniProt P56373); test: Whole-cell patch clamp on HEK293 cells expressing recombinant human P2X3Rs; format: cell-based
T1 construct: transfected with rat or human full-length P2X3 cDNA subcloned into pIRES2-EGFP; expressed in transfected cells; host or cells: HEK293T (HEK293 in the results)
T1 sequence (P56373 1-397): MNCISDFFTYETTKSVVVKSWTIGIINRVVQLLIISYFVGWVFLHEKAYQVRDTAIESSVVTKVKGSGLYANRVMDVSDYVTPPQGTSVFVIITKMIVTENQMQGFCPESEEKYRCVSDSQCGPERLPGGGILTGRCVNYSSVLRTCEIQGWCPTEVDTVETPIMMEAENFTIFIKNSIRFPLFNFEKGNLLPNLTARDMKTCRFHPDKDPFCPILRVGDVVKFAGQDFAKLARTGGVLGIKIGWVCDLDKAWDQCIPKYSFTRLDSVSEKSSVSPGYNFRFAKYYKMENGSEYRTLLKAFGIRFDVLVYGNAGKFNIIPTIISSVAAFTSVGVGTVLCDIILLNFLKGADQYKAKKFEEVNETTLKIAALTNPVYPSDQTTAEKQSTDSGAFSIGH
Experimental: (§1) Rat trigeminal, nodose, or dorsal root ganglion (TG, NG, and DRG, respectivley) neurons in culture were prepared as described previously.[46],[47] Neurons were plated on poly-L-lysine (0.2 mg/ml)-coated Petri dishes and cultured for one to two days under an atmosphere containing 5% CO2. Cells were used within two days of plating when they lacked processes. HEK293T cells were prepared as reported previously[32],[48] and transfected with rat or human full-length P2X3 cDNA subcloned into pIRES2-EGFP (Clontech, Mountain View, CA, USA).
(§2) TG, NG, DRG, or HEK cells were recorded in the whole-cell configuration while being continuously superfused (at 2 ml/min) with control solution containing (in mM): 152 NaCl, 5 KCl, 1 MgCl2, 2 CaCl2, 10 glucose, and 10 HEPES; pH was adjusted to 7.4 with NaOH and osmolarity was adjusted to 320 mOsM with glucose. […] Responses to selective P2X3R agonist α,β-methylene-ATP (α,β-meATP; resistant to ectoATPase hydrolysis, Sigma-Aldrich) were measured using an EPC-9 amplifier operated by HEKA Patch Master software (HEKA Electronik, Germany). Cells were voltage-clamped at −70 mV. In most cells, series resistance was compensated by 80%. To determine EC50 values, dose-response curves were constructed for α,β-meATP by administering different agonist doses same cells and fitting data to a logistic equation (Origin 8.0, Microcal, Northampton, MA).
Agonists and antagonists were applied (usually for 2 s) via a rapid superfusion system (Rapid Solution Changer RSC-200; BioLogic Science Instruments, Grenoble, France) placed 100 to 150 µm near the cell. The time for the solution exchange across the cell was approximately 30 ms, as judged with liquid junction potential measurements. All chemicals, including enzymes for cell culture, were from Sigma-Aldrich (St. Louis, MO). […]
The peak amplitudes of the responses were measured using HEKA Patch Master software. […] All data are presented as mean ± SEM (n = the number of cells) with statistical significance assessed by paired t-test (for parametric data) or Mann-Whitney rank-sum test (for nonparametric data). […]

[2] = target: T2, native P2X3Rs in DRG neurons (Rattus norvegicus, UniProt P49654); test: Whole-cell recording of α,β-meATP currents in cultured dorsal root ganglion (DRG) neurons; format: cell-based; details: DRG neuron, read-out: inhibition of peak currents in DRG neurons
T2 construct: effects of AppNHppA on native P2X3Rs in TG, DRG, and NG neurons were investigated; endogenous in cells; host or cells: cultured rat trigeminal ganglion (TG) or dorsal root ganglion (DRG) neurons
T2 sequence (P49654 1-397): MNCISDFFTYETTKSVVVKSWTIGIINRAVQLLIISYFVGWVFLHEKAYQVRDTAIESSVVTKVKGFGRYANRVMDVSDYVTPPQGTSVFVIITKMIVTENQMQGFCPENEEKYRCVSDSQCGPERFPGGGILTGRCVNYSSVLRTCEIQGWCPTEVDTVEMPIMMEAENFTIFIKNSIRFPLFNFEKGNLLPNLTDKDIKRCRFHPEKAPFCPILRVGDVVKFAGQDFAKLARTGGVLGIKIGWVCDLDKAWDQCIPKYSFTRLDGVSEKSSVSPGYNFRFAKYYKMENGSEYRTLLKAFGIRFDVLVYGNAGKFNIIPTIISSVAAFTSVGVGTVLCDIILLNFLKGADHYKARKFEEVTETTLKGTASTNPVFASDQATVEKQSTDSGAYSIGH
Experimental: as §1
as §2, with “MA). […]” for “MA).”

Nc1ncnc2c1ncn2[C@@H]1O[C@H](COP(=O)(O)OP(=O)(O)NP(=O)(O)OP(=O)(O)OC[C@H]2O[C@@H](n3cnc4c(N)ncnc43)[C@H](O)[C@@H]2O)[C@@H](O)[C@H]1O [AppNHppA, diadenosine 5′,5′′′-P^1,P^4-(β,γ-imido)tetraphosphate]
remaining activity at 1 µM ([1]; HEK293, read-out: α,β-meATP test currents, % of control): 12 ± 4%
remaining activity at 0.1 µM ([1]; HEK293, read-out: α,β-meATP test responses, % of control): 48 ± 8%
activity at 0.01 µM ([1]; HEK293, read-out: α,β-meATP-activated currents, % of control values): 80 ± 5%
inhibition at 1 µM [2]: 79.2 ± 5.6%
